From patent US20250074911A1, “MACROCYCLIC BTK INHIBITORS” (Crossfire Oncology Holding B.V., priority 2021, published 2025)

Experiments:
wt-BTK = wt-BTK (Homo sapiens (Human), UniProt Q06187); assay: Binding kinetics measurements (Surface Plasmon Resonance) on wt-BTK; conditions: for Tau (h) wt-BTK (Act): target residence time, SPR
Summary of the method: (§1)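 SPR, single cycle kinetics: 5 injections, 3.16-316 nM, 30 μl/min (avoids mass transport limitation), 22° C, 1% DMSO buffer. Protein immobilized at 4° C on streptavidin chip, biocytin block. Blank run first; reference channel and buffer curves subtracted.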

BTK C481S = BTK C481S (Homo sapiens (Human), UniProt Q06187, C481S); assay: Binding kinetics measurements (Surface Plasmon Resonance) on BTK C481S; conditions: for Tau (h) BTK C418S (Act): target residence time for BTK C481S, SPR
Chain of BTK C481S (Q06187 whole entry C481S): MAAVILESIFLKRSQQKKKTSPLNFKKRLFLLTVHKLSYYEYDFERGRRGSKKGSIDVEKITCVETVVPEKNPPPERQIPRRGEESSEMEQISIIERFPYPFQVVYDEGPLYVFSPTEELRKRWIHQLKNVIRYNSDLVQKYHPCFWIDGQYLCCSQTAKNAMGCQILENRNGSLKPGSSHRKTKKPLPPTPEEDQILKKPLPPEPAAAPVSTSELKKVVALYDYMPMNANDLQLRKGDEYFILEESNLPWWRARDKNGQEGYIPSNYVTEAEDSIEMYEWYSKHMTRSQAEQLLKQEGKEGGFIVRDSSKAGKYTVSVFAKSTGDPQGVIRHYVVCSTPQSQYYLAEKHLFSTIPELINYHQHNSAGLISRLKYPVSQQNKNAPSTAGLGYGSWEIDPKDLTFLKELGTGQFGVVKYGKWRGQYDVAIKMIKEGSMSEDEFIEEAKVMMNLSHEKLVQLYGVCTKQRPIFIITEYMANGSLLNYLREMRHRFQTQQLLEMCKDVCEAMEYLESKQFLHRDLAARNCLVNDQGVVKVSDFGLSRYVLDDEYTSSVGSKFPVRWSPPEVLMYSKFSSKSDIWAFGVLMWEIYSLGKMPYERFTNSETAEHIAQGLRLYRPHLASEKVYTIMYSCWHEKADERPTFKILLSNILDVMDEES
Summary of the method: as §1

BTK T474S = BTK T474S (Homo sapiens (Human), UniProt Q06187, T474S); assay: Binding kinetics measurements (Surface Plasmon Resonance) on BTK T474S; conditions: for residence time: read-out: Tau (h) BTK T474S (Act), target residence time
Chain of BTK T474S (Q06187 whole entry T474S): as the sequence (Q06187 whole entry C481S) above, with T474S, S481C counted along it
Summary of the method: as §1

[1] = tested on: wt-BTK, BTK C481S, BTK T474I and BTK C481S/T474I expressing 293 cells; assay: Cell based washout, pBTK (Tyr223) Western blot; parameters: species or system human; conditions: 1000 nM compound 2 hours, washed twice, harvested 0-24 hours
Protocol: In vitro cellular (mutant) BTK inhibition, and inhibitor wash-out Generation of human wt-BTK, BTK C481S, BTK T474I, and BTK C481S/T474I expressing GripTite 293 MSR cells.
GripTite 293 MSR cells (Thermo Fisher, cat. no. R79507), here after referred to as 293 cells, were cultured in DMEM/F-12, GIutaMAX™ supplement medium (Thermo Fisher cat. no. 10565018) supplemented with 1% Penicilline/Streptomycine (Thermo Fisher cat. no. 15140122) 10% fetal bovine serum (Biowest, cat. no. Si181 0-500), 1× MEM Non-Essential Amino Acids (Thermo Fisher cat. no. 11140050) and 50 μg/ml Geneticin (Thermo Fisher cat. no. 10131035). Cells were transfected, with pEF6/V5-HisB (Thermo Fisher cat. no. V96120) expression vectors containing either full-length wildtype-BTK (canonical sequence NM_000061), BTK C481 S, BTK T474I or BTK C481 S/T474I (BaseClear) using Lipofectamine™ 3000 (Invitrogen). Because the stop codon at the end of the coding sequence of BTK has been conserved, the His-tag present in the expression vector is not being used. Immediately after transfection, cells were cultured in medium without Geneticin, and after 24 hours 50 μg/ml geneticin was added. 48 hours after transfection, medium was removed and replaced by medium containing both geneticin (50 μg/ml) and blasticidin (10 μg/ml) S HCl (Thermo Fisher, cat. no. A1113903). The resulting transfectants were cultured under blasticidin selection pressure for 18-35 passages to obtain stable wild-type BTK (wt-BTK), BTK C481S, BTK T474I, and BTK C481 S/T474I expressing cell pools. Stability of the (mutant) BTK expression in the 293 cell pools was confirmed by poly-acrylamide gel electrophoresis followed by Western blotting (FIG. 1A). […] For both experiments 10 μg of protein was separated on 4-12% Bis-Tris polyacrylamide gels.
Wild-type BTK, BTK C481S, BTK T474I or BTK C481 S/T474I expressing 293 cells were lysed in lysis buffer supplemented with protease inhibitors (Merck, cat. no. P8340) and phosphatase inhibitors (Thermo Fisher, cat. no. 78426). The protein concentration was determined with a Pierce BCA protein assay kit (Thermo Fisher, cat. no. 23227). Lysates were diluted to a concentration of 1 μg/μl in NuPage® LDS Sample Buffer (Thermo Fisher, cat. no. NP0008) with 167 mM DTT (Acros Organics, cat. no. 10686841) and denatured for 5 minutes at 95° C. The samples (10 μg protein) were, together with a pre stained protein ladder (Thermo Fisher, cat. no. 26616), separated on 4-12% Bis-Tris polyacrylamide gels (Thermo Fisher, cat. no. NP0324BOX). Separated protein was subsequently transferred, in methanol free transfer buffer (Thermo Fisher, cat. no. 35045), to a nitrocellulose membrane (Thermo Fisher, cat. no. 88018). Blots were first immunologically stained with phospho-BTK (Tyr223) rabbit mAb (Cell Signaling, cat. no. 5082S), and beta-actin rabbit mAb (Cell Signaling, cat. no. 4967S), followed by peroxidase conjugated goat anti-rabbit IgG (Cell Signaling, cat. no. 7074S). Afterwards, antibodies were removed using Western-blot stripping buffer (Thermo Fisher cat. no. 46428) and staining was repeated with a (total-)BTK mouse mAb (Abnova, cat. no. MAB0798), followed by peroxidase conjugated horse anti-mouse IgG (Cell Signaling, cat. no. 7076S). For all blots the colour development was performed with ECL horseradish peroxidase substrate (BioRad, cat. no. 170-5060).
Wild-type BTK, BTK C481S, BTK T474I, and BTK C481 S/T474I expressing 293 cells were growing exponentially when seeded in culture medium, without blasticidin, at a density of 2,000,000 cells/4 ml/well, in 25 cm^2 cell culture flasks (Greiner Bio-one, cat. no. 690175). Flasks were placed in a 37° C. C02-incubator for 16-24 hours after which 1 ml culture medium containing 5000 nM of the compound of Example 46 or Example 201, or Example 184, or Example 204, or Example 45 or (+/−) Loxo-305, or 0.05% DMSO (no compound) was added. 2 hours after addition of the inhibitors (0h) cells are either collected or washed twice with 5 ml culture medium. […]

BTK T316A = BTK T316A (Homo sapiens (Human), UniProt Q06187, T316A); assay: Binding kinetics measurements (Surface Plasmon Resonance) on BTK T316A; conditions: for Tau (h) BTK T316A (Act): target residence time, SPR
Chain of BTK T316A (Q06187 whole entry T316A): as the sequence (Q06187 whole entry C481S) above, with T316A, S481C counted along it
Summary of the method: as §1

BTK T474I = BTK T474I (Homo sapiens (Human), UniProt Q06187, T474I); assay: Binding kinetics measurements (Surface Plasmon Resonance) on BTK T474I; conditions: for Tau (h) BTK T474I (Act): target residence time, SPR
Chain of BTK T474I (Q06187 whole entry T474I): as the sequence (Q06187 whole entry C481S) above, with T474I, S481C counted along it
Summary of the method: as §1

[2] = binding affinity by Surface Plasmon Resonance (SPR)

Chain of wt-BTK (Q06187 whole entry): as the sequence (Q06187 whole entry C481S) above, with S481C counted along it

SMILES | Kd (wt-BTK; [2]) | Tau (h) wt-BTK (Act) (wt-BTK) | Kd (BTK C481S; [2]) | Tau (h) BTK C418S (Act) (BTK C481S) | Kd (BTK T474S; [2]) | residence time (BTK T474S) | time for which level of phosphorylated BTK (pBTK (Tyr223)) is prohibited or reduced after wash-out ([1]; also cell lines expressing mutant BTK) | Kd (BTK T316A; [2]) | Tau (h) BTK T316A (Act) (BTK T316A) | Kd (BTK T474I; [2]) | Tau (h) BTK T474I (Act) (BTK T474I) | target residence time on wild-type-BTK (wt-BTK; result in words) | target residence time on BTK C481 mutants (BTK C481S; result in words) | target residence time on BTK T474 mutants (T474S) (BTK T474S; result in words) | level of phosphorylated BTK (pBTK (Tyr223)) in wash-out experiments ([1]; result in words) | target residence time on BTK T316 mutants (BTK T316A; result in words) | target residence time on BTK T474 mutants (T474I) (BTK T474I; result in words)
Nc1ncc2c3c1c(-c1ccc(C(=O)Nc4cc(C(F)(F)F)ccn4)cc1)nn3[C@@H]1CCC[C@H](C1)NC(=O)CCCCC/C=C/2 [Example 46] | < 5 nM | 4.87 h | < 5 nM | 9.36 h | < 3 nM | 4.8 h | at least 6 hours | < 5 nM | 3.23 h | < 2 nM | 2.58 h | – | – | – | – | – | –
COc1ccc(F)cc1C(=O)NCc1ccc(-c2nn([C@@H](C)C(F)(F)F)c(N)c2C(N)=O)cc1 [pirtobrutinib, reference compound] | – | 0.45 h | – | 0.91 h | – | 1.25 h | – | – | 0.17 h | – | 0.03 h | short target residence times | short target residence times | short target residence times | does not prohibit or reduce the level of phosphorylated BTK | short target residence times | short target residence times
